Earlier results in US12630850B2, “Enzymatic break down of chlorogenic acid in sunflower-containing products” (Chapman University, priority 2022, dated 2026).

Columns and labels:
[1] = Kabir et al., 2014; cited from earlier work
[2] = p-nitrophenyl acetate, between 20° C. and 40° C.; cited from earlier work
[3] = Lai et al., 2009; cited from earlier work

| Molecule | pKa [1] | also measured |
| --- | --- | --- |
| O=C(/C=C/c1ccc(O)c(O)c1)O[C@@H]1C[C@](O)(C(=O)O)C[C@@H](O)[C@H]1O [CGA, Chlorogenic acid] | 3.6 |  |
| O=C(O)[C@]1(O)C[C@@H](O)[C@@H](O)[C@H](O)C1 [quinic acid] | 3.4 |  |
| O=C(O)/C=C/c1ccc(O)c(O)c1 [caffeic acid] | 4.5 |  |
| L. gasseri: CGA esterase from the bacterium L. gasseri (Fritsch et al., 2017) (protein, listed as Lactobacillus gasseri) MKLKKKKVGIYMATITIERDGLNLVGTREEPFGEIYDMAIIFHGFTANRNTPLLKEIADELRDENIASVRFDFNGHGDSDGKFENMTVLNEIEDANAILNYVKTDPHVRNIYLVGHSQGGVVASMLAGLYPDIIKKVVLLAPAATLKTDALNGSTQGVKYNPDHIPDRLPFKDLTLGFYLRIAQQLPIYEVSVHFTRPVCLIHGANDTWSPDASKKYDQVYENSTLHLVEGADHSFTDTYQKTAADLTAEFLQDNNTF |  | Temperature-dependence of activity [2]: very weak temperature-dependence |
| L. johnsonii: CGA esterase from L. johnsonii (Lai et al., 2009) (protein, listed as Lactobacillus johnsonii) MATTITLERDGLQLVGTREEPFGEIYDMAIIFHGFTANRNTSLLKEIANSLRDENIASVRFDFNGHGDSDGKFENMTVLNEIEDANAILNYVKTDPHVRNIYLVGHSQGGVVASMLAGLYPDLIKKVVLLAPAATLKSDALEGNTQGVTYNPDHIPDRLPFKDLTLGFYLRIAQQLPIYEVSAQFTKPVCLIHGTDDTWSPNASKKYDQIYQNSTLHLIEGADHCFSDSYQKNAVNLTTDFLQNNNAF |  | Km [3]: 53 µM |
